Series [1] is described as follows: In vivo kinetic experiments (half-life). The note with it: SD, rat, blood, po, 10 mg/kg.
A further series relates to C57BL/6 mice. Description: Oral glucose tolerance test (OGTT). The format is in vivo. The following applies: dose of 1 mg/kg, compared to the control group. The protocol:
Blood was collected from caudal veins of animals in the morning on the day of the experiment and a blood glucose level was measured with an Accu-Chek Active Blood Glucose Meter (Roche Diagnostics). […] Blood collection was made at designated time points—just prior to drug administration, just prior to glucose administration, and 5, 15, 30, 60 and 90 min after glucose administration.

Usually half-life stands for how long it takes for the measured level to halve. In the case of `CCOC[C@@H]1C(=O)NCCN1C(=O)C[C@H](N)Cc1cc(F)c(F)cc1F.Cl` [Example 3, (R)-4-[(R)-3-amino-4-(2,4,5-trifluorophenyl)butanoyl]-3-(ethoxymethyl)piperazin-2-one hydrochloride], the half-life in series [1] is 7.6 h. Moreover, the blood glucose-lowering effects with C57BL/6 mice stood at 52%.
`N[C@@H](CC(=O)N1CCn2c(nnc2C(F)(F)F)C1)Cc1cc(F)c(F)cc1F` [MK-0431, reference compound] had a half-life in series [1] of 4.8 h.
Turning to `CC(C)(C)OC[C@@H]1C(=O)NCCN1C(=O)C[C@H](N)Cc1cc(F)c(F)cc1F.O=C(O)C(O)C(O)C(=O)O` [Example 12, (R)-4-[(R)-3-amino-4-(2,4,5-trifluorophenyl)butanoyl]-3-(t-butoxymethyl)piperazin-2-one tartrate], in series [1], the half-life was 5.5 h. The molecule further yielded a blood glucose-lowering effects in the series on C57BL/6 mice of 62%.
The matching figures for `CC(C)(C)OC[C@@H]1C(=O)NCCN1C(=O)C[C@H](N)Cc1cc(F)c(F)cc1F.Cl` [Example 1, (R)-4-[(R)-3-amino-4-(2,4,5-trifluorophenyl)butanoyl]-3-(t-butoxymethyl)piperazin-2-one hydrochloride]: 7.9 h and 54%.

Values taken from patent US8030315B2, “DPP-IV inhibitor including beta-amino group, preparation method thereof and pharmaceutical composition containing the same for preventing and treating diabetes or obesity” (Dong-A Pharm. Co., Ltd., priority 2007, dated 2011).
